This note sets out measurements from patent US12590099B2, “Inhibitors of histone deacetylase useful for the treatment or prevention of HIV infection” (Merck Sharp & Dohme LLC, priority 2018, dated 2026).

Where two headings read alike, the source gives them in different places. Bounds are passed on as bounds.

Assay [1] has as its target T1, Recombinant human HDAC3/SMRT heterodimer (Homo sapiens, UniProt O15379).
T1 construct: FLAG (C); made in house
Kind of assay: Human HDAC enzyme inhibitor Fluor-de-Lys assay, HDAC3/SMRT. It is filed as biochemical.

Assay [2] concerns the target T2, Recombinant human HDAC1 (Homo sapiens, UniProt Q13547).
T2 construct: FLAG (C); made in house
The experiment in a line: Human HDAC enzyme inhibitor Fluor-de-Lys assay, HDAC1. The assay is classed as biochemical. The essentials:
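Fluor-de-Lys format at room temperature (23° C.): compounds titrated 10-point, 1:3, preincubated with HDAC before substrate addition; HDAC1 run at 0.3 nM enzyme with 20 μM BML-KI104. Developer with excess HDAC inhibitor ends the reaction, and trypsin-liberated AMC fluorescence is the read-out.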

For assay [3], the system named is KARN cells (Jurkat 2C4). The experiment in a line: cells. It is filed as cell-based. Particulars: Homo sapiens, Jurkat. The essentials: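 Jurkat 2C4 (KARN) cells dosed with test compounds up to 40 μM final, 0.4% DMSO, overnight at 5% CO2; luciferase read by Steady-Glo luminescence after 10 min at room temperature. DMSO set as 0% and 2 μM SAHA as 100% induction; 4-parameter fit of percent activation.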

Where [4] appears, read: recombinant human HDAC1, Fluor-de-Lys assay.
Setting [5] is: read-out: Karn EC50 (nM) 0.1% NHS, 0.1% normal human serum, luciferase induction, 100% = 2 μM SAHA.
Setting [6] is: read-out: Karn EC50 (nM) 5% NHS, 5% normal human serum, luciferase induction, 100% = 2 μM SAHA.
Where [7] appears, read: read-out: Karn EC50 (nM) 0.1% NHS, 0.1% normal human serum.
The mark [8] stands for this setting: read-out: Karn EC50 (nM) 5% NHS, 5% normal human serum.

T2 sequence (Q13547 whole entry): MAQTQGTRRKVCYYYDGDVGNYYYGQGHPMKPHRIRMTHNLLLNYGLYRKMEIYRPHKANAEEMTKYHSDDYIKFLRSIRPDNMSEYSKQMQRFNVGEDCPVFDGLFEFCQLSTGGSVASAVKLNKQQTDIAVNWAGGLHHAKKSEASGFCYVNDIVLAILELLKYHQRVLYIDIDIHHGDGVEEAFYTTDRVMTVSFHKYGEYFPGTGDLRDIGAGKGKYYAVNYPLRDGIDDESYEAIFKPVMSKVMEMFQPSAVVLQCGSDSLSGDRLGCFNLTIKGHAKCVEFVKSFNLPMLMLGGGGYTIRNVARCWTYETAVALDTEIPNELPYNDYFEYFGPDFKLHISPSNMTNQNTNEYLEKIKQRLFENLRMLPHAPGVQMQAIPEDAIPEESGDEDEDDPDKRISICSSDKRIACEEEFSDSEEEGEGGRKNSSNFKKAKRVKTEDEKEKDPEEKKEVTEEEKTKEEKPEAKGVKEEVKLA
T1 sequence (O15379 whole entry): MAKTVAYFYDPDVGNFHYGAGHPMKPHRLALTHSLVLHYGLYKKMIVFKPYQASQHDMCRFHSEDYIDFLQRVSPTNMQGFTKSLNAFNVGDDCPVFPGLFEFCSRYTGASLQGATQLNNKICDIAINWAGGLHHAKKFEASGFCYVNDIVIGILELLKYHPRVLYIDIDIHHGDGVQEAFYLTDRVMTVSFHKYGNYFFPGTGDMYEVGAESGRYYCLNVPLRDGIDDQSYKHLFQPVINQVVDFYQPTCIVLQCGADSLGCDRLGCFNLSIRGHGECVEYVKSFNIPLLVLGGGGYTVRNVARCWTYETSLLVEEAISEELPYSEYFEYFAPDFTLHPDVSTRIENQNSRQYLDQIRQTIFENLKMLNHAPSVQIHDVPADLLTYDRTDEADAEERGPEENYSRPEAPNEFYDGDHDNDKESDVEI
T1 sequence (Q9Y618 1-899 partner limits assumed): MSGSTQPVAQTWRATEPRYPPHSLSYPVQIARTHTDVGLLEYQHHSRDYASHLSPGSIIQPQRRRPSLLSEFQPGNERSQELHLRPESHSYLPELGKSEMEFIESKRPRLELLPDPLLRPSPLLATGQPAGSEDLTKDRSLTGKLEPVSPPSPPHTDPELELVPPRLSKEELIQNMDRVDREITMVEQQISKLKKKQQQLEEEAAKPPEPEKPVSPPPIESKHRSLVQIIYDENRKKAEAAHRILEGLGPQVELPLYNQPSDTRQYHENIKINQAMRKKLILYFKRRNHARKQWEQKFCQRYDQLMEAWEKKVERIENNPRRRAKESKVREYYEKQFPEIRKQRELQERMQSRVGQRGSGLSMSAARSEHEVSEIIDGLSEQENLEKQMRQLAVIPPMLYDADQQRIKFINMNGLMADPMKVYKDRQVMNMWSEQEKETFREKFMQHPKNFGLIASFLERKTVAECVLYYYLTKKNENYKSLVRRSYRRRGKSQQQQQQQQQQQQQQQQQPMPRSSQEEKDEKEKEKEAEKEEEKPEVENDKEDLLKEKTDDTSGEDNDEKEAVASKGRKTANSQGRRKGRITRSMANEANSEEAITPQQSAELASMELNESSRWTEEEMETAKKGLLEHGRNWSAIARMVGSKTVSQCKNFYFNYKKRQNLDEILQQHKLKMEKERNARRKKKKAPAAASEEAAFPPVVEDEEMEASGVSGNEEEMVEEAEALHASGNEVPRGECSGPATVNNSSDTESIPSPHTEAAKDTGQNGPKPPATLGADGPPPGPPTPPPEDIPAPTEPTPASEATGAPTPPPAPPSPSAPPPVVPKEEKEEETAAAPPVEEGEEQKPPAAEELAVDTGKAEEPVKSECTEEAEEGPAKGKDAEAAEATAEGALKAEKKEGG

On to `CCC(=O)CCCCC[C@H](NC(=O)C1CC12CC1CCC(C2)N1C)c1ncc(-c2ccc3ncccc3c2)[nH]1` (single isomer, unassigned) [Compound 242], for which the IC50 was below 0.0015 µM in assay [1] (recombinant human HDAC3/SMRT, Fluor-de-Lys assay) and 0.00394 µM in assay [2] (setting [4]). Besides, the EC50 in assay [3] (setting [5]) was 1690 nM; in assay [3] (setting [6]), 2770 nM.

In the case of `CCC(=O)CCCCC[C@H](NC(=O)[C@H]1CC12CCN(C)CC2)c1ncc(-c2ccc3nc(C(F)(F)F)ccc3c2)o1` [Compound 78, (1S)-6-methyl-N-[(1S)-7-oxo-1-{5-[2-(trifluoromethyl)quinolin-6-yl]-1,3-oxazol-2-yl}nonyl]-6-azaspiro[2.5]octane-1-carboxamide], the IC50 was 0.0138 µM in assay [1] and 0.0183 µM in assay [2]. Besides, the EC50 was found to be 911 nM in assay [3] (setting [7]) and 1440 nM in assay [3] (setting [8]).

Regarding `CCC(=O)CCCCC[C@H](NC(=O)[C@H]1CC12CCN(C)CC2)c1ncc(-c2ccc3nc(C)ccc3c2)o1` [Compound 80], the results for the IC50 in assay [1] and in assay [2] were 0.00296 µM and 0.00289 µM, respectively. The 50% effective concentration (EC50) in assay [3] (setting [7]) amounted to 435 nM; in assay [3] (setting [8]), 501 nM.

Consider `CCC(=O)CCCCC[C@H](NC(=O)[C@H]1CC12CCN(C)CC2)c1nc(Cl)c(-c2cc3ccccc3nc2O)[nH]1` [Compound 81, (1S)—N-{(1S)-1-[4-chloro-5-(2-hydroxyquinolin-3-yl)-1H-imidazol-2-yl]-7-oxononyl}-6-methyl-6-azaspiro[2.5]octane-1-carboxamide], for which the values for the half-inhibitory concentration (IC50) in assay [1] and in assay [2] were 0.069 µM and 0.0882 µM, respectively. In addition, the figures for the half-maximal effective concentration (EC50) in assay [3] (setting [7]) and in assay [3] (setting [8]) were 6430 nM and 10700 nM, respectively.

As to `CCC(=O)CCCCC[C@H](NC(=O)[C@H]1CC12CCN(C(C)C)CC2)c1ncc(-c2ccc3nc(C)ccc3c2)[nH]1` [Compound 83], the IC50 in assay [1] and in assay [2] was below 0.0015 µM each time. The figures for the half-maximal effective concentration (EC50) in assay [3] (setting [7]) and in assay [3] (setting [8]) were 64 nM and 60 nM, respectively.

Regarding `CN1CCC2(CC1)C[C@@H]2C(=O)N[C@@H](CCCCCC(=O)CC1CC1)c1ncc(-c2ccc(F)cc2)[nH]1` [Compound 84], the IC50 in assay [1] was 0.0163 µM; in assay [2] it was 0.00995 µM. Further, the half-maximal effective concentration (EC50) was determined as 632 nM in assay [3] (setting [7]) and 1180 nM in assay [3] (setting [8]).

Take `CCC(=O)CCCCC[C@H](NC(=O)[C@H]1CC12CCN(C)CC2)c1ncc(-c2coc3ccccc3c2=O)[nH]1` [Compound 86]: the half-inhibitory concentration (IC50) in assay [1] was determined as 0.0121 µM; in assay [2] it was 0.0159 µM. The results for the half-maximal effective concentration (EC50) in assay [3] (setting [7]) and in assay [3] (setting [8]) were 1060 nM and 1510 nM, respectively.

For the compound `CCC(=O)CCCCC[C@H](NC(=O)[C@H]1CC12CCN(C)CC2)c1ncc(-c2ccc3ncoc3c2)[nH]1` [Compound 89], the results for the IC50 in assay [1] and in assay [2] were 0.00227 µM and 0.00363 µM, respectively. The EC50 in assay [3] (setting [7]) was found to be 219 nM; in assay [3] (setting [8]), 237 nM.

For `CCC(=O)CCCCC[C@H](NC(=O)[C@H]1CC12CCN(C)CC2)c1ncc(-c2ccc3cc(C#N)ccc3c2)[nH]1` [Compound 90], the half-maximal inhibitory concentration (IC50) in assay [1] came out at 0.00038 µM; in assay [2] it was 0.00028 µM. For the same compound, the values for the EC50 in assay [3] (setting [7]) and in assay [3] (setting [8]) were 52 nM and 33 nM, respectively.

As for `CCC(=O)CCCCC[C@H](NC(=O)[C@H]1CC12CCN(C)CC2)c1[nH]c(-c2ccc(F)cc2)nc1Cl` [Compound 91], the IC50 in assay [1] amounted to 0.00326 µM; in assay [2], 0.00438 µM. Further, the figures for the half-maximal effective concentration (EC50) in assay [3] (setting [7]) and in assay [3] (setting [8]) were 207 nM and 274 nM, respectively.

`CCC(=O)CCCCC[C@H](NC(=O)[C@H]1CC12CCN(CC)CC2)c1ncc(-c2ccc(-c3nccs3)cc2)o1` [Compound 93]: the IC50 in assay [1] was 0.00576 µM; in assay [2], 0.00715 µM. Also, the figures for the EC50 in assay [3] (setting [7]) and in assay [3] (setting [8]) were 688 nM and 736 nM, respectively.

On to `CCC(=O)CCCCC[C@H](NC(=O)[C@H]1CC12CCN(CC)CC2)c1ncc(-c2ccc(-c3ncco3)cc2)o1` [Compound 94], for which the values for the IC50 in assay [1] and in assay [2] were 0.00401 µM and 0.00913 µM, respectively. The 50% effective concentration (EC50) in assay [3] (setting [7]) was 502 nM; in assay [3] (setting [8]), 549 nM.

On to `CCC(=O)CCCCC[C@H](NC(=O)CC1CC2(C1)CN(C)C2)c1ncc(-c2cc3ccccc3nc2OC)[nH]1` [Compound 314], for which, in assay [2] (setting [4]), the 50% inhibitory concentration (IC50) amounted to 0.00103 µM. Besides, the figures for the EC50 in assay [3] (setting [5]) and in assay [3] (setting [6]) were 131 nM and 811 nM, respectively.

One may read the IC50 as the concentration needed to halve the response being measured. One may read the EC50 as the midpoint of the concentration-response curve.
